One may read the IC50 as the midpoint of a concentration-inhibition curve.

Assay [1] can be described thus: Growth inhibition of paclitaxel-resistant human NCI/ADR cells after 72 hrs by MTT assay. In kind it is functional, cell-based. To be noted: NCI/ADR-RES. For orientation: Tetrazolium assays rely on reduction of a dye to a coloured formazan, in cell work by metabolically active cells.
Assay [2] relates to PANC-1. The experiment in a line: Cell cycle arrest in human PANC1 cells assessed as accumulation at G1 phase at 100 nM after 24 hrs by flow cytometry. In kind it is functional. (In general: In flow cytometry, cells or beads pass a laser one at a time.)
Assay [3] has as its system PANC-1. The experiment in a line: Cell cycle arrest in human PANC1 cells assessed as accumulation at S phase at 100 nM after 24 hrs by flow cytometry. In kind it is functional.
The test system of assay [4] is PANC-1. The assay is described as follows: Cell cycle arrest in human PANC1 cells assessed as accumulation at G2/M phase at 100 nM after 24 hrs by flow cytometry. In kind it is functional.
Assay [5] deals with ASPC1. The experiment in a line: Growth inhibition of human AsPC1 cells after 72 hrs by MTT assay. The note with it: ASPC1, 72 h. In kind it is functional, cell-based.
In assay [6] the test system is DLD-1. The assay is described as follows: Growth inhibition of human DLD1 cells after 72 hrs by MTT assay. In kind it is functional, cell-based. The note with it: DLD-1, 72 h.
Assay [7] concerns PANC-1. The experiment in a line: Growth inhibition of human PANC1 cells after 72 hrs by MTT assay. In kind it is functional, cell-based. To be noted: PANC-1, 72 h.

The molecule `C=C/C=C\[C@H](C)[C@@H]1OC(=O)/C=C\C=C\[C@@H](C)[C@@H](O)C[C@H](O)/C=C\[C@H](C)[C@H](O)[C@@H](C)CCCC[C@@H](O)[C@@H]1C` showed an IC50 in assay [1] of 1.5 µM.
For `C=C/C=C\[C@H](C)[C@@H]1OC(=O)CC/C=C/[C@@H](C)[C@@H](O)C[C@H](O)/C=C\[C@H](C)[C@H](O)[C@@H](C)C[C@@H](C)CC[C@@H](O)[C@@H]1C`, the values for the Activity in assay [2], in assay [3] and in assay [4] were 9%, 17% and 75%, respectively.
For `C=C/C=C\[C@H](C)[C@@H]1OC(=O)/C=C\C=C\C[C@@H](O)C[C@H](O)/C=C\[C@H](C)[C@H](O)[C@@H](C)C[C@@H](C)CC[C@@H](O)[C@@H]1C`, in that order: 8%, 17% and 76%.
In the case of `C=C/C=C\[C@H](C)[C@H](O)[C@@H](C)[C@H]1CC[C@H](C)C[C@H](C)[C@@H](O)[C@@H](C)/C=C\[C@@H](O)C[C@H](O)[C@H](C)/C=C/CCC(=O)O1`, the IC50 in assay [1] came to 1.6 µM; in assay [5], 3.1 µM; in assay [6], 0.93 µM; in assay [7], 1.3 µM.
For `C=C/C=C\[C@H](C)[C@H](O)[C@@H](C)[C@H]1CC[C@H](C)C[C@H](C)[C@@H](O)[C@@H](C)/C=C\[C@@H](O)C[C@H](O)[C@H](C)CCCCC(=O)O1`, in that order: 3.1 µM, 4.9 µM, 1.5 µM and 3.2 µM.
Consider `C=C/C=C\[C@H](C)[C@@H]1OC(=O)CCCC[C@@H](C)[C@@H](O)C[C@H](O)/C=C\[C@H](C)[C@H](O)[C@@H](C)C[C@@H](C)CC[C@@H](O)[C@@H]1C`, for which the Activity in assay [2] stood at 6%; in assay [3], 9%; in assay [4], 84%.
For `C=C/C=C\[C@H](C)[C@@H]1OC(=O)/C=C\C=C\[C@@H](C)[C@@H](O)C[C@H](O)/C=C\[C@H](C)[C@H](O)[C@@H](C)C[C@@H](C)CC[C@@H](O)[C@@H]1C` [DICTYOSTATIN] the same measures were 4.2%, 14% and 82%.

For the origin of these results see ChEMBL document CHEMBL1153890, “Total synthesis and biological evaluation of novel C2-C6 region analogues of dictyostatin” (Bioorg Med Chem, 2009).
